ChEMBL document CHEMBL4229536, “In vitro and in vivo pharmacokinetic and pharmacodynamic study of MBRI-001, a deuterium-substituted plinabulin derivative as a potent anti-cancer agent” (Bioorg Med Chem, 2018)
pIC50: −log10 of the molar value.

Tests used:
[1] = Drug uptake in Wistar rat heart at 6 mg/kg, iv measured after 0.5 hrs; assay type: ADME, organism-based; details: in vivo
[2] = Drug excretion in Wistar rat urine at 4 mg/kg, iv measured after 24 hrs; assay type: ADME, organism-based; details: read-out: Drug excretion
NCI-H460 [3] = test: Antitumor activity against human NCI-H460 cells xenografted in nude mouse assessed as inhibition of tumor volume at 3 mg/kg, iv administered once in every 2 days for 14 consecutive days relative to control; assay type: functional; details: 48 h
[4] = Drug uptake in Wistar rat brain at 6 mg/kg, iv measured after 1 hr; assay type: ADME, organism-based; details: in vivo
[5] = Apparent volume of distribution in Wistar rat at 4 mg/kg, iv; assay type: ADME, organism-based; details: in vivo, read-out: Vz
[6] = Stability in rat plasma at 1 uM after 120 mins by LC-MS/MS analysis; assay type: ADME, cell-free; details: read-out: Stability
[7] = Cmax in Wistar rat at 8 mg/kg, iv; assay type: ADME, organism-based; set-up: dose 8 mg/kg, route intravenous; details: in vivo
[8] = Stability in rat liver microsomes at 50 uM after 20 mins in presence of NADPH by LC-MS/MS analysis; assay type: ADME, microsome; details: read-out: Stability
Cytochrome P450 1A2 = molecular target: T1, Cytochrome P450 1A2 (Homo sapiens, UniProt P05177); test: Inhibition of CYP1A2 in human liver microsomes preincubated for 10 mins followed by NADPH addition measured after 10 mins by LC-MS/MS analysis; assay type: ADME
T1 sequence (P05177 whole entry): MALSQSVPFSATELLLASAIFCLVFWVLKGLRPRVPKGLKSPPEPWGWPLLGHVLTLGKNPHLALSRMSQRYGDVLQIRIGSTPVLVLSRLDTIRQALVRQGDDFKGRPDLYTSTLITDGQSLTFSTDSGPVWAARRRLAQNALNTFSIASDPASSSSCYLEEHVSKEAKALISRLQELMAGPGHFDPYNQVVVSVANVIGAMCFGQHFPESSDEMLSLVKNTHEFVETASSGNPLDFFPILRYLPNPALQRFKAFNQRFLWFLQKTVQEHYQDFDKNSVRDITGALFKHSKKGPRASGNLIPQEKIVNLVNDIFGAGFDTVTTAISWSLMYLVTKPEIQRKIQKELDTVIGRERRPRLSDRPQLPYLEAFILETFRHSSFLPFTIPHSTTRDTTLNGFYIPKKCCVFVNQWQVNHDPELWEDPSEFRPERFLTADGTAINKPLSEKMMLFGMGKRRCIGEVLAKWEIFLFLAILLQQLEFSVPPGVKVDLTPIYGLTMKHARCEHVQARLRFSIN

Cytochrome P450 2D6 = Cytochrome P450 2D6 (Homo sapiens, UniProt P10635); test: Inhibition of CYP2D6 in human liver microsomes preincubated for 10 mins followed by NADPH addition measured after 10 mins by LC-MS/MS analysis; assay type: ADME
Chain of Cytochrome P450 2D6 (P10635 whole entry): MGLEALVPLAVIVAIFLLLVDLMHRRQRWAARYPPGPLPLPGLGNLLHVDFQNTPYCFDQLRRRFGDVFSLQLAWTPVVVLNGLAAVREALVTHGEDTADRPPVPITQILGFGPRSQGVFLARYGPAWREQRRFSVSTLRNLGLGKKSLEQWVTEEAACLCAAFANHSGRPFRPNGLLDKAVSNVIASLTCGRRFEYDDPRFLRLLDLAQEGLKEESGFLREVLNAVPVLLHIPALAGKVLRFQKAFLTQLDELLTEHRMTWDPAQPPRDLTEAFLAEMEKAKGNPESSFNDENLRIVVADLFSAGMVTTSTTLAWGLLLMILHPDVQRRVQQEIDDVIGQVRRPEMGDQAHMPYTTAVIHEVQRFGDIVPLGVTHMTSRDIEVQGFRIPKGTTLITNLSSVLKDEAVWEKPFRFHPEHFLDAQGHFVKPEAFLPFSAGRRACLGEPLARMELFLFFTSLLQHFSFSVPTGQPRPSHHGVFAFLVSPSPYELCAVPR

[9] = Drug uptake in Wistar rat kidney at 6 mg/kg, iv measured after 1 hr; assay type: ADME, organism-based; details: in vivo
[10] = Drug uptake in Wistar rat pancreas at 6 mg/kg, iv measured after 8 hrs; assay type: ADME, organism-based; details: in vivo
[11] = Drug excretion in Wistar rat urine at 4 mg/kg, iv measured after 36 hrs; assay type: ADME, organism-based; details: read-out: Drug excretion
Rattus norvegicus = test: Clearance in Wistar rat at 8 mg/kg, iv; assay type: ADME, organism-based; details: in vivo
[12] = Drug uptake in Wistar rat large intestine at 6 mg/kg, iv measured after 4 hrs; assay type: ADME, organism-based; details: in vivo
NCI-H460 [13] = test: Antitumor activity against human NCI-H460 cells xenografted in nude mouse assessed as inhibition of tumor volume at 6 mg/kg, iv administered once in every 2 days for 14 consecutive days cotreated with 50 mg/kg gefitinib once daily for 14 consecutive days relative to control; assay type: functional
NCI-H460 [14] = test: Antitumor activity against human NCI-H460 cells xenografted in nude mouse assessed as inhibition of tumor weight at 3 mg/kg, iv administered once in every 2 days for 14 consecutive days cotreated with 25 mg/kg gefitinib once daily for 14 consecutive days relative to control; assay type: functional
[15] = Drug uptake in Wistar rat brain at 6 mg/kg, iv measured after 12 hrs; assay type: ADME, organism-based; details: in vivo
[16] = Drug uptake in Wistar rat lungs at 6 mg/kg, iv measured after 1 hr; assay type: ADME, organism-based, Lung; details: in vivo
[17] = Cmax in Wistar rat at 4 mg/kg, iv; assay type: ADME, organism-based; set-up: dose 4 mg/kg, route intravenous; details: in vivo
[18] = Drug excretion in Wistar rat urine at 4 mg/kg, iv measured after 4 hrs; assay type: ADME, organism-based; details: read-out: Drug excretion
[19] = Stability in rat liver microsomes at 50 uM after 120 mins in presence of NADPH by LC-MS/MS analysis; assay type: ADME, microsome; details: read-out: Stability
Cytochrome P450 2C9 = Cytochrome P450 2C9 (Homo sapiens, UniProt P11712); test: Inhibition of CYP2C9 in human liver microsomes preincubated for 10 mins followed by NADPH addition measured after 10 mins by LC-MS/MS analysis; assay type: ADME
Chain of Cytochrome P450 2C9 (P11712 whole entry): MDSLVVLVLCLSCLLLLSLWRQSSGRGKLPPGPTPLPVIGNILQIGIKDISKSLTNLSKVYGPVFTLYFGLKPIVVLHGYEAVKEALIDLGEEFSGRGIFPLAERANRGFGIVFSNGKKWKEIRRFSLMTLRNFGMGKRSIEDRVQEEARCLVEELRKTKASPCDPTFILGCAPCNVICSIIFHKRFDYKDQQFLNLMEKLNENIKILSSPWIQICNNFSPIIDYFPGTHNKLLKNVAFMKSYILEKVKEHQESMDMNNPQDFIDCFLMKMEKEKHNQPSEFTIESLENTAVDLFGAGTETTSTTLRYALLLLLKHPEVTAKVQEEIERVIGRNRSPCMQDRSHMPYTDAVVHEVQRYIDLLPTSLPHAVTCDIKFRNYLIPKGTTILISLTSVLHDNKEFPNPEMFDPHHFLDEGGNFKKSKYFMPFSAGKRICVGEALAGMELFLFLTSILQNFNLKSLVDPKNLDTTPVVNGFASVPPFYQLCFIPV

Mus musculus [20] = test: Toxicity in nude mouse xenografted with human NCI-H460 cells assessed as body weight at 3 mg/kg, iv administered once in every 2 days for 14 consecutive days cotreated with 25 mg/kg gefitinib once daily for 14 consecutive days (reference value: 20.6 +/- 1.5 g); assay type: organism-based; details: in vivo, 48 h
Cytochrome P450 2C19 = Cytochrome P450 2C19 (Homo sapiens, UniProt P33261); test: Inhibition of CYP2C19 in human liver microsomes preincubated for 10 mins followed by NADPH addition measured after 10 mins by LC-MS/MS analysis; assay type: ADME
Chain of Cytochrome P450 2C19 (P33261 whole entry): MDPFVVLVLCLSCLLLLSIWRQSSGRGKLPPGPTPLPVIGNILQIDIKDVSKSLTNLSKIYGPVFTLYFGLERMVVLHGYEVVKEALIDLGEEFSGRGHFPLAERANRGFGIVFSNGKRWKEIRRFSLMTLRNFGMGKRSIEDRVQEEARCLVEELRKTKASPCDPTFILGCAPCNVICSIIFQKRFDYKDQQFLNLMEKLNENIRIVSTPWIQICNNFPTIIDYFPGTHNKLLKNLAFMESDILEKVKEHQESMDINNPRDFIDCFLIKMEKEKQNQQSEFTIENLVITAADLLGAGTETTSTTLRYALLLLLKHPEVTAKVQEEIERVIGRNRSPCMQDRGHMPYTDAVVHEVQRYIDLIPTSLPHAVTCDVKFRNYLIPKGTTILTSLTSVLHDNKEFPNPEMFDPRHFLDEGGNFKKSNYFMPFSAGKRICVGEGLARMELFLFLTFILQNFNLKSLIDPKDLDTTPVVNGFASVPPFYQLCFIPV

Mus musculus [21] = test: Toxicity in nude mouse xenografted with human NCI-H460 cells assessed as body weight at 6 mg/kg, iv administered once in every 2 days for 14 consecutive days cotreated with 50 mg/kg gefitinib once daily for 14 consecutive days (reference value: 20.6 +/- 1.5 g); assay type: organism-based; details: in vivo, 48 h
[22] = Half life in Wistar rat at 4 mg/kg, iv; assay type: ADME, organism-based; details: in vivo
Mus musculus [23] = test: Toxicity in nude mouse xenografted with human NCI-H460 cells assessed as death at 3 to 6 mg/kg, iv administered once in every 2 days for 14 consecutive days cotreated with 25 to 50 mg/kg gefitinib once daily for 14 consecutive days; assay type: organism-based; details: in vivo, 48 h
[24] = Drug uptake in Wistar rat small intestine at 6 mg/kg, iv measured after 1 hr; assay type: ADME, organism-based; details: in vivo
[25] = Drug uptake in Wistar rat large intestine at 6 mg/kg, iv measured after 1 hr; assay type: ADME, organism-based; details: in vivo
[26] = Drug excretion in Wistar rat feces at 4 mg/kg, iv measured after 36 hrs; assay type: ADME, organism-based; details: faeces, read-out: Drug excretion
NCI-H460 [27] = test: Antitumor activity against human NCI-H460 cells xenografted in nude mouse assessed as inhibition of tumor weight at 3 mg/kg, iv administered once in every 2 days for 14 consecutive days relative to control; assay type: functional; details: 48 h
[28] = Drug uptake in Wistar rat lungs at 6 mg/kg, iv measured after 4 hrs; assay type: ADME, organism-based, Lung; details: in vivo
[29] = Stability in rat plasma at 1 uM after 20 mins by LC-MS/MS analysis; assay type: ADME, cell-free; details: read-out: Stability
[30] = Stability in rat liver microsomes at 50 uM after 5 mins in presence of NADPH by LC-MS/MS analysis; assay type: ADME, microsome; details: liver microsomes, read-out: Stability
[31] = Drug uptake in Wistar rat pancreas at 6 mg/kg, iv measured after 4 hrs; assay type: ADME, organism-based; details: in vivo
[32] = Drug excretion in Wistar rat urine at 4 mg/kg, iv measured after 12 hrs; assay type: ADME, organism-based; details: read-out: Drug excretion
[33] = Drug excretion in Wistar rat feces at 4 mg/kg, iv measured after 12 hrs; assay type: ADME, organism-based; details: faeces, read-out: Drug excretion
[34] = Drug uptake in Wistar rat large intestine at 6 mg/kg, iv measured after 12 hrs; assay type: ADME, organism-based; details: in vivo

SMILES: [2H]/C(c1nc[nH]c1C(C)(C)C)=c1/[nH]c(=O)/c(=C/c2ccccc2)[nH]c1=O
- Drug uptake [1]: 2189.8 ng/mL/g
- dose excreted at 24 h [2]: 0.2%
- inhibition in vivo at 3 mg/kg (NCI-H460 [3]): 46.9%
- Drug uptake [4]: 561 ng/mL/g
- Vd [5]: 16.4 L/kg
- remaining at 2 h, 1 µM [6]: 101%
- Cmax [7]: 20100 ng/mL
- remaining at 20 min, 50 µM [8]: 74.8%
- pIC50 (Cytochrome P450 1A2): 5.99
- pIC50 (Cytochrome P450 2D6): 4.74
- Drug uptake [9]: 6768.5 ng/mL/g
- Drug uptake [10]: 399 ng/mL/g
- dose excreted at 36 h [11]: 0.23%
- CL (Rattus norvegicus): 64.617 mL/min/kg
- Drug uptake [12]: 359 ng/mL/g
- inhibition (INH) (NCI-H460 [13]): 67.8%
- inhibition (INH) (NCI-H460 [14]): 53.3%
- Drug uptake [15]: 83 ng/mL/g
- Drug uptake [16]: 158342.2 ng/mL/g
- Cmax [17]: 4420 ng/mL
- dose excreted at 4 h [18]: 0.27%
- remaining at 2 h, 50 µM [19]: 31.1%
- pIC50 (Cytochrome P450 2C9): 6.25
- Activity (Mus musculus [20]): 19.8 g
- pIC50 (Cytochrome P450 2C19): 5.42
- Activity (Mus musculus [21]): 18.5 g
- half-life [22]: 2.27 h
- Activity (Mus musculus [23]): Non-Toxic
- Drug uptake [24]: 1128.6 ng/mL/g
- Drug uptake [25]: 1421.7 ng/mL/g
- dose excreted at 36 h [26]: 5.85%
- inhibition in vivo at 3 mg/kg (NCI-H460 [27]): 43%
- Drug uptake [28]: 49038.9 ng/mL/g
- remaining at 20 min, 1 µM [29]: 95.8%
- remaining at 5 min, 50 µM [30]: 84.8%
- Drug uptake [31]: 1366.3 ng/mL/g
- dose excreted at 12 h [32]: 0.14%
- dose excreted at 12 h [33]: 0.12%
- Drug uptake [34]: 381 ng/mL/g
